This assay has as its system L1210 leukemia ip in BDF1 mice, survival T/C. The assay can be described thus: NCI In Vivo Anticancer Drug Screen. Data for tumor model L1210 Leukemia (intraperitoneal) in B6D2F1 (BDF1) mice. Particulars: endpoint: mean survival time, higher = longer survival. The gist of the method: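 Each compound was tested against a transplantable tumor grown in mice. The endpoint was survival, with treated animals benchmarked against vehicle controls as a simple ratio.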

Where [1] appears, read: dose: 100.0 mg/kg/injection, schedule: Q01DX001 (ip), vehicle: carboxymethylcellulose (CMC).
Where [2] appears, read: dose: 200.0 mg/kg/injection, schedule: Q01DX001 (ip), vehicle: carboxymethylcellulose (CMC).
Where [3] appears, read: dose: 400.0 mg/kg/injection, schedule: Q01DX001 (ip), vehicle: carboxymethylcellulose (CMC).
The mark [4] stands for this setting: dose: 400.0 mg/kg/injection, schedule: Q01DX001 (ip), vehicle: Klucel (hydroxypropylcellulose) (HPC).
Where [5] appears, read: dose: 5.0 mg/kg/injection, schedule: Q01DX001 (ip), vehicle: saline.
Where [6] appears, read: dose: 100.0 mg/kg/injection, schedule: Q01DX009 (ip), vehicle: Klucel (hydroxypropylcellulose) (HPC).
[7] abbreviates: dose: 200.0 mg/kg/injection, schedule: Q01DX009 (ip), vehicle: Klucel (hydroxypropylcellulose) (HPC).
Setting [8] is: dose: 100.0 mg/kg/injection, schedule: Q01DX001 (ip), vehicle: Klucel (hydroxypropylcellulose) (HPC).
[9] abbreviates: dose: 200.0 mg/kg/injection, schedule: Q01DX001 (ip), vehicle: Klucel (hydroxypropylcellulose) (HPC).
The mark [10] stands for this setting: dose: 100.0 mg/kg/injection, schedule: Q01DX001 (ip), vehicle: saline.
The mark [11] stands for this setting: dose: 200.0 mg/kg/injection, schedule: Q01DX001 (ip), vehicle: saline.
Setting [12] is: dose: 400.0 mg/kg/injection, schedule: Q01DX001 (ip), vehicle: saline.
The mark [13] stands for this setting: dose: 75.0 mg/kg/injection, schedule: Q01DX001 (ip), vehicle: saline.

Several values for one entry are separate records, joined by “and”; a condition that tells them apart may be missing. Equal values may be shown once. Inconclusive results and toxic doses are left out.

As for `CCCCCC/C(=C\c1ccc(O)cc1)C(=O)O`, the T/C (dose: 50.0 mg/kg/injection, schedule: Q01DX001 (ip), vehicle: carboxymethylcellulose (CMC)) was 97 % of control; the T/C under setting [1] is 103 % of control; the T/C under setting [2] is 105 % of control; the T/C under setting [3] was 100 % of control.

As to `O=C(Nc1nccs1)C(Cl)Cl`, the T/C by setting is: under setting [1], 103 % of control; (dose: 177.0 mg/kg/injection, schedule: Q01DX001 (ip), vehicle: Klucel (hydroxypropylcellulose) (HPC)) 105 % of control; under setting [2], 118 % of control; (dose: 266.0 mg/kg/injection, schedule: Q01DX001 (ip), vehicle: Klucel (hydroxypropylcellulose) (HPC)) 107 % of control; under setting [4], 105 % of control; under setting [3], 249 % of control. Moreover, the T/C (dose: 600.0 mg/kg/injection, schedule: Q01DX001 (ip), vehicle: Klucel (hydroxypropylcellulose) (HPC)) was 105 % of control.

With `O=C1c2ccccc2C[CH]1[Hg][Cl]` (stereo unspecified), the T/C was 103 % of control under setting [5] and 102 % of control (dose: 10.0 mg/kg/injection, schedule: Q01DX001 (ip), vehicle: saline).

Regarding `NC(=O)NC(=O)C1C2CC3OC(=O)C1C3C2` (stereo unspecified), the T/C by setting is: (dose: 100.0 mg/kg/injection, schedule: Q04DX003 (ip), vehicle: saline) 93 % of control; (dose: 200.0 mg/kg/injection, schedule: Q04DX003 (ip), vehicle: saline) 93 % of control; (dose: 400.0 mg/kg/injection, schedule: Q04DX003 (ip), vehicle: saline) 98 % of control.

In the case of `CN(Cc1ccc(Cl)cc1)C(=O)NCCCCCCNC(=O)N(C)Cc1ccc(Cl)cc1`, the T/C under setting [6] is 100 % of control; the T/C under setting [7] was 94 % of control; the T/C (dose: 400.0 mg/kg/injection, schedule: Q01DX009 (ip), vehicle: Klucel (hydroxypropylcellulose) (HPC)) was 92 % of control.

For `CN=C(N)c1ccc(NC(=O)/C=C\c2ccc(/C=C/C(=O)Nc3ccc(C(N)=NC)cc3)cc2)cc1`, the T/C (dose: 15.0 mg/kg/injection, schedule: Q01DX Z (ip), vehicle: saline) was 121 % of control; the T/C (dose: 60.0 mg/kg/injection, schedule: Q01DX Z (oral), vehicle: saline) is 100 % of control; the T/C (dose: 120.0 mg/kg/injection, schedule: Q01DX Z (ip), vehicle: saline) is 179 % of control; the T/C (dose: 120.0 mg/kg/injection, schedule: Q01DX Z (oral), vehicle: saline) was 100 % of control; the T/C (dose: 240.0 mg/kg/injection, schedule: Q01DX Z (oral), vehicle: saline) was 101 % of control; the T/C (dose: 480.0 mg/kg/injection, schedule: Q01DX Z (oral), vehicle: saline) was 95 % of control.

Regarding `CCOP(=O)(OCC)C(CC=C(C)C)C(C)=O` (stereo unspecified), the T/C is, setting by setting: (dose: 50.0 mg/kg/injection, schedule: Q01DX009 (ip), vehicle: saline with Tween-80) 100 % of control; (dose: 100.0 mg/kg/injection, schedule: Q01DX009 (ip), vehicle: saline with Tween-80) 94 % of control; (dose: 200.0 mg/kg/injection, schedule: Q01DX009 (ip), vehicle: saline with Tween-80) 88 % of control.

In the case of `COc1cccc(C(Cc2ccc(N3C(N)=NC(N)=NC3(C)C)cc2)C(=O)Nc2ccc(S(=O)(=O)F)cc2)c1` (stereo unspecified), the T/C was 99 % of control (dose: 50.0 mg/kg/injection, schedule: Q01DX001 (ip), vehicle: Klucel (hydroxypropylcellulose) (HPC)); 99 % of control under setting [8]; 96 % of control under setting [9].

For the compound `Cn1ccc2c([N+](=O)[O-])cccc2c1=O`, the T/C is 92 % of control (dose: 25.0 mg/kg/injection, schedule: Q04DX003 (ip), vehicle: Klucel (hydroxypropylcellulose) (HPC)) and 98 % of control (dose: 50.0 mg/kg/injection, schedule: Q04DX003 (ip), vehicle: Klucel (hydroxypropylcellulose) (HPC)).

On to `COCCNC(=O)NS(=O)(=O)c1ccc(C)cc1`, for which the T/C is 98 % of control (dose: 100.0 mg/kg/injection, schedule: Q04DX003 (ip), vehicle: saline with Tween-80); 98 % of control (dose: 200.0 mg/kg/injection, schedule: Q04DX003 (ip), vehicle: saline with Tween-80); 96 % of control (dose: 400.0 mg/kg/injection, schedule: Q04DX003 (ip), vehicle: saline with Tween-80).

For `COc1ccc2c(=O)c(C)c(-c3ccccc3)oc2c1CN(C)C`, the T/C by setting is: (dose: 0.19 mg/kg/injection, schedule: Q01DX009 (ip), vehicle: saline) 96 % of control; (dose: 0.39 mg/kg/injection, schedule: Q01DX009 (ip), vehicle: saline) 112 % of control; (dose: 0.78 mg/kg/injection, schedule: Q01DX009 (ip), vehicle: saline) 110 % of control; (dose: 0.78 mg/kg/injection, schedule: Q04DX003 (ip), vehicle: saline) 100 % of control; (dose: 1.56 mg/kg/injection, schedule: Q01DX009 (ip), vehicle: saline) 112 % of control; (dose: 1.56 mg/kg/injection, schedule: Q04DX003 (ip), vehicle: saline) 94 % of control. Besides, the T/C by setting is: (dose: 3.12 mg/kg/injection, schedule: Q01DX009 (ip), vehicle: saline) 108 % of control; (dose: 3.12 mg/kg/injection, schedule: Q04DX003 (ip), vehicle: saline) 93 % of control; under setting [5], 103 % of control.

With `O=C1CCCC(=O)NNC(=O)Nc2ccc(cc2)Cc2ccc(cc2)NC(=O)NN1`, the T/C was 104 % of control (dose: 50.0 mg/kg/injection, schedule: Q01DX001 (ip), vehicle: saline); 90 % of control under setting [10]; 93 % of control under setting [11]; 93 % of control under setting [12].

On to `O=C(C[n+]1ccccc1)N/N=C/c1ccc(Cl)c(Cl)c1`, for which the T/C (dose: 25.0 mg/kg/injection, schedule: Q01DX009 (ip), vehicle: saline) is 94 % of control; the T/C (dose: 50.0 mg/kg/injection, schedule: Q01DX009 (ip), vehicle: saline) is 102 % of control; the T/C (dose: 100.0 mg/kg/injection, schedule: Q01DX009 (ip), vehicle: saline) was 102 % of control.

On to `COC1OC2COC(C)(C)OC2C1OS(=O)(=O)c1ccc(C)cc1` (stereo unspecified), for which the T/C was 104 % of control under setting [1], 96 % of control under setting [2] and 107 % of control under setting [3].

As for `C/C=C1/CN2CCC1CC2C(O)c1ccnc2ccc(O)cc12` (stereo unspecified), the T/C under setting [13] is 101 % of control.

Turning to `C=C(C)C1(CC)C(=O)NC(=O)N(C)C1=O` (stereo unspecified), the T/C is 102 % of control (dose: 75.0 mg/kg/injection, schedule: Q01DX001 (ip), vehicle: carboxymethylcellulose (CMC)); 97 % of control under setting [13]; 105 % of control (dose: 150.0 mg/kg/injection, schedule: Q01DX001 (ip), vehicle: carboxymethylcellulose (CMC)); 102 % of control (dose: 150.0 mg/kg/injection, schedule: Q01DX001 (ip), vehicle: saline); 103 % of control (dose: 300.0 mg/kg/injection, schedule: Q01DX001 (ip), vehicle: carboxymethylcellulose (CMC)); 108 % of control (dose: 300.0 mg/kg/injection, schedule: Q01DX001 (ip), vehicle: saline).

In the case of `Cn1cc(/C=C\[N+](=O)[O-])c2ccccc21`, the T/C under setting [10] was 98 % of control, the T/C under setting [11] was 98 % of control and the T/C under setting [12] is 98 % of control.

For the compound `O=C(O)/C(=C\c1ccc([N+](=O)[O-])cc1)c1cccc(Cl)c1`, the T/C reads like this: under setting [8], 108 % of control; under setting [6], 96 % of control and 97 % of control; (dose: 100.0 mg/kg/injection, schedule: Q04DX002 (ip), vehicle: Klucel (hydroxypropylcellulose) (HPC)) 94 % of control and 89 % of control; (dose: 100.0 mg/kg/injection, schedule: Q04DX003 (ip), vehicle: Klucel (hydroxypropylcellulose) (HPC)) 106 % of control; under setting [9], 103 % of control; under setting [7], 97 % of control and 102 % of control. The T/C by setting is: (dose: 200.0 mg/kg/injection, schedule: Q04DX002 (ip), vehicle: Klucel (hydroxypropylcellulose) (HPC)) 101 % of control and 102 % of control; (dose: 200.0 mg/kg/injection, schedule: Q04DX003 (ip), vehicle: Klucel (hydroxypropylcellulose) (HPC)) 97 % of control; under setting [4], 98 % of control; (dose: 400.0 mg/kg/injection, schedule: Q04DX002 (ip), vehicle: Klucel (hydroxypropylcellulose) (HPC)) 99 % of control; (dose: 400.0 mg/kg/injection, schedule: Q04DX003 (ip), vehicle: Klucel (hydroxypropylcellulose) (HPC)) 99 % of control.

The values are drawn from PubChem BioAssay AID248 (DTP/NCI, 2004).
